Experimental data reported in patent US20210139947A1, “METHOD FOR ASSESSING SUSCEPTIBILITY OF A VIRUS TO TREATMENT BY MEASURING ENZYME ACTIVITY AND A SYSTEM THEREFORE” (priority 2017, published 2021).
Like-named read-outs stand apart in the source and are kept apart here.

How the values were obtained:
[1] = tested on: RT extracted from HIV-1 C Plasma Sa147 K103N, E138Q, Y318F, M184V; assay: Drug resistance indicator assay, remaining RT activity; assay type: biochemical
Experimental: (§1) Isolation of HIV is performed in a separation plate, a 96 deep-well microplate (well volume 2 ml). The Viral Load assay is started by addition of 40 μl sample additive e.g 5,5′-dithiobis-(2-nitrobenzoic acid) to each well (see FIG. 2). Thereafter the patient plasmas and control samples are added. Sample additive is mixed with the plasma prior to isolation of HIV for inactivation of certain enzymes present in the plasma. After 20 minutes incubation, a slurry containing 1 μm magnetic polymeric beads, is added to the wells. The positively charged beads are used to capture the HIV particles. At low pH (e.g. 5.5) and appropriate salt concentration the negatively charged HIV particles bind to the beads while most of the other components present in plasma will not bind, e.g. the proteins (antibodies) and anti-retroviral drugs (ARVs). After an additional five minutes incubation, the microwell plate is transported to a magnetic plate. When exposed to the magnetic field from the magnetic plate, the beads will be trapped to the walls of the wells. The plasma can then be removed by aspiration using a pipette. The separation plate is then transported back to the shaker, away from the magnetic plate.
(§2) The wash procedure (see FIG. 3) starts by adding a first wash buffer, the Bead Wash Buffer, and the entire separation plate will be shaken during three minutes to resuspend the beads. After that, the separation plate is moved to the magnetic plate where the beads will be exposed to the magnetic field and trapped to the walls of the wells. Next, the wash buffer is aspirated. The separation plate is then transported back to the shaker, away from the magnetic plate. In the current example, this wash procedure is repeated three times with the Bead Wash Buffer (referred to as “Wash solution 1” in FIG. 3) and one time with the second wash buffer, the so called Bead Reconditioning Buffer (referred to as “Wash solution 2” in FIG. 3).
(§3) The reverse transcriptase (RT) is now to be extracted from the viral particles, which is illustrated in FIG. 4. The HIV particle is composed of a protein core surrounded by a lipid bilayer envelope that will break if it is exposed to certain detergents. Once the lipid bilayer envelope is dissolved, the protein core falls apart and the RT inside is released. When the last wash step is finalized, lysis buffer containing e. g. the detergent Synperonic A11 is added to the wells, in FIG. 4 referred to as “lysis buffer”. The virus envelope breaks and the reverse transcriptase, RT, is released. With the magnetic beads still bound to the walls of the wells, the lysate containing the released RT is collected by aspiration and used in the subsequent RT reaction step.

[2] = tested on: RT extracted from HIV-1 C Plasma Sa72 wild type; assay: as above; assay type: biochemical
Experimental: as §1, §2, §3

[3] = target: T1, SIV Recombinant RT SIVsmH4 (Simian immunodeficiency virus, UniProt P12502); assay: as above; assay type: biochemical; details: for remaining activity at 9 µM: EFV 9.0 μM
T1 construct: The recombinantly expressed and purified SIV RT was derived from the molecular clone pSIVsm/H4; made in house; host or cells: E. coli BL21 (DE3), vector pSRT.ET 11c
Experimental: The recombinantly expressed and purified SIV RT was derived from the molecular clone pSIVsm/H4. An expression vector pSRT.ET 11c was constructed and expression of SIV-RT in E. coli strain BL21 (DE3) in ordinary LB medium was carried out. The enzyme was purified in three chromatographic steps on a Heparin Sepharose CL-6B column, a Sepharose FF column and a Phenyl Sepharose CL-4B column.
(§4) The RT extracts recovered from this process and the other RT samples were analyzed for remaining activity according to above described drug resistance indicator assay.

[4] = tested on: FIV RT, Cell culture virus M2 CladB; assay: as above; assay type: biochemical
Experimental: as §4

[5] = tested on: 69SS + 5M Recombinant RT HXB2 M41L,T69S-SS, L210W, R211K, L214F, T215Y; assay: as above; details: EFV 9.0 μM
Experimental: (§5) Drug reaction solution: A buffer identical to above mentioned RT Reaction solution with a defined concentration of an antiviral drug added.
(§6) Each lysate is split into two aliquots, one whereof is added to a well containing drug at a predetermined concentration, and one whereof is added to a well without added drug. Apart from the lysates, said HIV drug susceptibility reference samples are also included in the assay.
(§7) The virus susceptibility to treatment with the drug can be determined from the relation between the enzyme activities in the presence and in absence of the drug. This can be expressed as percent remaining RT activity, i.e. the quota between signal in presence of drug and signal in absence of drug times 100.

[6] = tested on: 69SG + 5M Recombinant RT HXB2 M41L,T69S-SG, L210W, R211K, L214F, T215Y; assay: as above; details: EFV 9.0 μM
Experimental: as §5, §6, §7

[7] = tested on: HIV-2 RT, Cell culture virus CRF01_AB; assay: as above; details: EFV 9.0 μM; HIV-2 CRF01_AB
Experimental: as §5, §6, §7

[8] = tested on: JSRV RT, Cell culture virus UK strain; assay: as above; details: EFV 9.0 μM
Experimental: as §5, §6, §7

[9] = target: T2, MMTV Recombinant RT BR6 strain (Mouse mammary tumor virus, UniProt P03365); assay: as above
T2 sequence (P03365 861-1436 limits assumed): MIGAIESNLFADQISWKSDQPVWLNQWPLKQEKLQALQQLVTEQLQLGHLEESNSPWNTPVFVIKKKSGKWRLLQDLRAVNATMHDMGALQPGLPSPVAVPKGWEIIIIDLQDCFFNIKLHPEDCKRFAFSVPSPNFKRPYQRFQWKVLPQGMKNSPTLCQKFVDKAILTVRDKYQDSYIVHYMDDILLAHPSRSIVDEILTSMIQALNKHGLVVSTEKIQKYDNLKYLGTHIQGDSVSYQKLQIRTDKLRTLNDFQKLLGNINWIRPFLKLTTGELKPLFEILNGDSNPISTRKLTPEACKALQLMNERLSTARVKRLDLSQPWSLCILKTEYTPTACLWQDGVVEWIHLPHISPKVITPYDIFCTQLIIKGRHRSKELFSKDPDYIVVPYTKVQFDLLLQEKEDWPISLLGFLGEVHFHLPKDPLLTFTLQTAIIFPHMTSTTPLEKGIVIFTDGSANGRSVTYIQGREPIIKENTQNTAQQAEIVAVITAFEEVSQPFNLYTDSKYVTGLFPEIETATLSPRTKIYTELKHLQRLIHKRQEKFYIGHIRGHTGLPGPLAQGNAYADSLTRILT
Experimental: as §5, §6, §7

[10] = tested on: BLV RT, Cell culture virus FLK-BLV cells; assay: as above; details: EFV 9.0 μM
Experimental: (This cell line is chronically infected by BLV).
as §5, §6, §7

[11] = tested on: HTLV-1 RT, Cell culture virus MT-2 Cells; assay: as above; details: EFV 9.0 μM
Experimental: as §5
(§8) Each lysate is split into two aliquots, one whereof is added to a well containing drug at a predetermined concentration, and one whereof is added to a well without added drug.
as §7

[12] = target: HTLV-2 RT, Cell culture virus (Human T-cell leukemia virus 2, UniProt P03363); assay: as above
Experimental: as §5, §8, §7

[13] = tested on: PERV RT, Cell culture virus PERV-PK15; assay: as above; details: EFV 9.0 μM, 6 mM Mn2+
Experimental: Virus culture supernatant was cleared from cell debris by centrifugation, aliquoted and stored at −70° C. until use
as §5
All buffers used for analysis of γ-retroviruses RTs were supplemented with 6 mM Mn2+, but were otherwise identical to the buffers described above.
as §6, §7

[14] = tested on: Mammalian γ -polymerase, mithochondria, Beef Heart; assay: Drug resistance indicator assay, remaining polymerase activity; details: EFV 9.0 μM
Experimental: as §5, §6, §7

[15] = target: T3, HIV-1 B Recombinant RT BH10 wild type (Human immunodeficiency virus type 1 group M subtype B, UniProt P03366); assay: biochemical; details: read-out: Remaining activity (% of actvity in absence of drug)
T3 construct: His-tag (C); made in house; host or cells: E. coli BL21 (DE3); plasmid purchased from Genescript
Experimental: as §4

[16] = target: HIV-1 B Recombinant RT HXB2 wild type (Human immunodeficiency virus type 1 group M subtype B, UniProt P04585); assay: biochemical; details: read-out: Remaining activity (% of actvity in absence of drug)
Experimental: as §4

T1 sequence (P12502 598-1156 limits assumed): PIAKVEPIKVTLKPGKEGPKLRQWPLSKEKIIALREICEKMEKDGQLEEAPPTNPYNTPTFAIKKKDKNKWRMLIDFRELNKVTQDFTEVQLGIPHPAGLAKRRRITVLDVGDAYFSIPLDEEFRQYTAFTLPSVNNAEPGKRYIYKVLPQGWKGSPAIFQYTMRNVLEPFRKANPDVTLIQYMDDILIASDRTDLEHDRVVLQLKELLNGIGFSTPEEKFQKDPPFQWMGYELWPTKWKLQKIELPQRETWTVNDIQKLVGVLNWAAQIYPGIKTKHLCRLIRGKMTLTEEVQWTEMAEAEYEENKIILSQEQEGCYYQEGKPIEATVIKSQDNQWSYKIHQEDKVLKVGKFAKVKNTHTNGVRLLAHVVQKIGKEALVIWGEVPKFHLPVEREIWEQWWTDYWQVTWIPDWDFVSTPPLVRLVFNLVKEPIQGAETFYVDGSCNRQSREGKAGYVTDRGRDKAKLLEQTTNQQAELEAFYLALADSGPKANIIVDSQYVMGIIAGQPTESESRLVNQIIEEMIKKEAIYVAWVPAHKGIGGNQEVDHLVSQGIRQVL
Chain of HTLV-2 RT, Cell culture virus (P03363 580-1166): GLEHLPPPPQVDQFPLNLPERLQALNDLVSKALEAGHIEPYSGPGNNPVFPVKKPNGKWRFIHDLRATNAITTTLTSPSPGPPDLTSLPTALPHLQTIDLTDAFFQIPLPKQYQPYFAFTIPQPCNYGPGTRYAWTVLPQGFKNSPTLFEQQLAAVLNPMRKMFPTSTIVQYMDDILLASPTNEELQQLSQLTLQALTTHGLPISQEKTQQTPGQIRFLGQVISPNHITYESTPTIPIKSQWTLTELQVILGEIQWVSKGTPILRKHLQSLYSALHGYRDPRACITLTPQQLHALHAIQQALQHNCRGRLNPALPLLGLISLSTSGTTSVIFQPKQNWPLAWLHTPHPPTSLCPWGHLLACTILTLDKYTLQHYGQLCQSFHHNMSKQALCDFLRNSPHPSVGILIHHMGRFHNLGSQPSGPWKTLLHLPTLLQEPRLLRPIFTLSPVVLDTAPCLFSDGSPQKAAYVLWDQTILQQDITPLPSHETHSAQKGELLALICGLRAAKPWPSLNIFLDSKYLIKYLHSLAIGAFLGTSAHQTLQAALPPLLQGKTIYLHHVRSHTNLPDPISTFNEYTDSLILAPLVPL

With `O=C1Nc2ccc(Cl)cc2[C@@](C#CC2CC2)(C(F)(F)F)O1` [EFV, (−)6-chloro-4-cyclopropylethynyl-4-trifluoromethyl-I,4-dihydro-2H-3,1-benzoxazin-2-one] the “Remaining activity (% of actvity in absence of drug)” value ([1]; EFV 9.0 μM) was 87.8%, the “Remaining activity (% of actvity in absence of drug)” value ([2]; EFV 9.0 μM) was 8.3% and the remaining activity at 9 µM ([3]; SIVsmH4, read-out: Remaining activity (% of actvity in absence of drug)) was 99.9%. For the same molecule, the remaining activity at 9 µM ([3]; SIVsmH4, read-out: Remaining activity (%)) was 103%, the “Remaining activity (% of actvity in absence of drug)” value ([4]; EFV 9.0 μM) was 93.6% and the “Remaining activity (%)” value ([4]; EFV 9.0 μM) was 93.6%. The “Remaining activity (%)” value [5] was 3.5%, the “Remaining activity (%)” value [6] was 3.9% and the “Remaining activity (%)” value [7] was 100.2%. The “Remaining activity (%)” value [8] was 102.7%, the remaining activity at 9 µM [9] was 102% and the “Remaining activity (%)” value [10] was 101.7%. The “Remaining activity (%)” value [11] was 93.8%, the remaining activity at 9 µM [12] was 91.7% and the “Remaining activity (%)” value [13] was 98.0%. For the same molecule, the “Remaining activity (%)” value [14] was 94.8%.

For `Cc1cc(C#N)cc(C)c1Oc1nc(Nc2ccc(C#N)cc2)nc(N)c1Br` [ETV, 4-({6-amino-5-bromo-2-[(4-cyanophenyl)amino]pyrimidin-4-yl}oxy)-3,5-dimethylbenzonitrile], the remaining activity at 21.8 µM [15] was 3.5%, the remaining activity at 21.8 µM [16] was 2.8% and the “Remaining activity (% of actvity in absence of drug)” value ([1]; ETV 21.8 μM) was 68.0%. For the same molecule, the “Remaining activity (% of actvity in absence of drug)” value ([2]; ETV 21.8 μM) was 6.5%, the remaining activity at 21.8 µM ([3]; ETV 21.8 μM, SIVsmH4, read-out: Remaining activity (% of actvity in absence of drug)) was 98.5% and the “Remaining activity (% of actvity in absence of drug)” value ([4]; ETV 21.8 μM) was 90.6%.

With `Cc1ccnc2c1NC(=O)c1cccnc1N2C1CC1` [NPV, 11-cyclopropyl-5,11-dihydro-4-methyl-6H-dipyrido[3,2-b:2′,3′-f][1,4]diazepin-6-one] the remaining activity at 81 µM [15] was 3.4%, the remaining activity at 81 µM [16] was 8.1% and the “Remaining activity (% of actvity in absence of drug)” value ([1]; NPV 81.0 μM) was 94.9%. The “Remaining activity (% of actvity in absence of drug)” value ([2]; NPV 81.0 μM) was 16.1%, the remaining activity at 81 µM ([3]; read-out: Remaining activity (% of actvity in absence of drug)) was 99.5% and the “Remaining activity (% of actvity in absence of drug)” value ([4]; NPV 81.0 μM) was 87.7%.

In the case of `Cc1cc(/C=C/C#N)cc(C)c1Nc1ccnc(Nc2ccc(C#N)cc2)n1` [RPV, 4-{[4-({4-[(1E)-2-cyanoeth-1-en-1-yl]-2,6-dimethylphenyl}amino)pyrimidin-2-yl]amino}benzonitrile], the remaining activity at 12 µM ([15]; RPV 12.0 μM, BH10 wild type) was 2.5%, the remaining activity at 12 µM ([16]; RPV 12.0 μM, HXB2 wild type) was 2.4% and the “Remaining activity (% of actvity in absence of drug)” value ([1]; RPV 12.0 μM) was 80.8%. For the same molecule, the “Remaining activity (% of actvity in absence of drug)” value ([2]; RPV 12.0 μM) was 9.3%, the remaining activity at 12 µM ([3]; RPV 12.0 μM, SIVsmH4, read-out: Remaining activity (% of actvity in absence of drug)) was 108% and the “Remaining activity (% of actvity in absence of drug)” value ([4]; RPV 12.0 μM) was 86.1%.
